Source: ChEMBL document CHEMBL3813638, “Investigation of the apoptotic pathway induced by benzimidazole-oxindole conjugates against human breast cancer cells MCF-7” (Bioorg Med Chem Lett, 2016)
Active and inactive are the calls of the source. The calls are words filed in the database; no cut-off is given here.

Experiments:
MCF7 [1] = assay: Induction of apoptosis in human MCF7 cells assessed as necrotic cells at 2 uM after 24 hrs by Annexin V-FITC/PI dual staining based flow cytometry (reference value: 0.1%); assay type: functional
HEK293 = assay: Cytotoxicity against human HEK293 cells assessed as cell growth inhibition after 48 hrs by MTT assay; assay type: cell-based; settings: HEK293, 48 h
MCF7 [2] = assay: Induction of apoptosis in human MCF7 cells assessed as late apoptotic cells at 2 uM after 24 hrs by Annexin V-FITC/PI dual staining based flow cytometry (reference value: 1.5%); assay type: functional
MCF7 [3] = assay: Induction of apoptosis in human MCF7 cells assessed as late apoptotic cells at 1 uM after 24 hrs by Annexin V-FITC/PI dual staining based flow cytometry (reference value: 1.5%); assay type: functional
MCF7 [4] = assay: Induction of apoptosis in human MCF7 cells assessed as suppression of Bcl-2 expression after 48 hrs by Western blot analysis; assay type: functional, cell-based
Vero = assay: Cytotoxicity against African green monkey Vero cells assessed as cell growth inhibition after 48 hrs by MTT assay; assay type: cell-based; settings: Chlorocebus sabaeus
MCF7 [5] = assay: Induction of apoptosis in human MCF7 cells assessed as increase in Bax expression after 48 hrs by Western blot analysis; assay type: functional, cell-based
MCF7 [6] = assay: Induction of ROS generation in human MCF7 cells at 2 uM after 48 hrs by DCFDA fluorescent probe based flow cytometry (reference value: 5.3%); assay type: functional
MCF7 [7] = assay: Induction of apoptosis in human MCF7 cells assessed as viable cells at 1 uM after 24 hrs by Annexin V-FITC/PI dual staining based flow cytometry (reference value: 94.9%); assay type: functional; settings: MCF7, 24 h, read-out: Activity
MCF7 [8] = assay: Cytotoxicity against human MCF7 cells; assay type: functional, cell-based
MCF7 [9] = assay: Disruption of mitochondrial membrane potential in human MCF7 cells assessed as cells with vital and intact mitochondrial membrane at 2 uM after 48 hrs by JC-1 staining based flow cytometry (reference value: 94%); assay type: functional
MCF7 [10] = assay: Induction of apoptosis in human MCF7 cells assessed as necrotic cells at 1 uM after 24 hrs by Annexin V-FITC/PI dual staining based flow cytometry (reference value: 0.1%); assay type: functional
MCF7 [11] = assay: Induction of apoptosis in human MCF7 cells assessed as early apoptotic cells at 2 uM after 24 hrs by Annexin V-FITC/PI dual staining based flow cytometry (reference value: 3.5%); assay type: functional
MCF7 [12] = assay: Induction of apoptosis in human MCF7 cells assessed as increase in caspase-9 activation at 1 to 2 uM after 48 hrs by Western blot analysis; assay type: functional, cell-based
MCF7 [13] = assay: Induction of apoptosis in human MCF7 cells assessed as increase in cytochrome c levels at 1 to 2 uM after 48 hrs by Western blot analysis; assay type: functional, cell-based
MCF7 [14] = assay: Disruption of mitochondrial membrane potential in human MCF7 cells assessed as cells with vital and intact mitochondrial membrane at 1 uM after 48 hrs by JC-1 staining based flow cytometry (reference value: 94%); assay type: functional
MCF7 [15] = assay: Induction of apoptosis in human MCF7 cells assessed as viable cells at 2 uM after 24 hrs by Annexin V-FITC/PI dual staining based flow cytometry (reference value: 94.9%); assay type: functional; settings: MCF7, 24 h, read-out: Activity
MCF7 [16] = assay: Induction of apoptosis in human MCF7 cells assessed as early apoptotic cells at 1 uM after 24 hrs by Annexin V-FITC/PI dual staining based flow cytometry (reference value: 3.5%); assay type: functional
MCF7 [17] = assay: Induction of apoptosis in human MCF7 cells assessed as increase in PARP 89 KDa cleavage at 1 to 2 uM after 48 hrs by Western blot analysis; assay type: functional, cell-based
MCF7 [18] = assay: Induction of ROS generation in human MCF7 cells at 1 uM after 48 hrs by DCFDA fluorescent probe based flow cytometry (reference value: 5.3%); assay type: functional

Row | Compound | Activity (MCF7 [1]) | IC50 (HEK293) | Activity (MCF7 [2]) | Activity (MCF7 [3]) | Activity (MCF7 [4]) | IC50 (Vero) | Activity (MCF7 [5]) | Activity (MCF7 [6]) | viability at 1 µM (MCF7 [7]) | IC50 (MCF7 [8]) | Activity (MCF7 [9]) | Activity (MCF7 [10]) | Activity (MCF7 [11]) | Activity (MCF7 [12]) | Activity (MCF7 [13]) | Activity (MCF7 [14]) | viability at 2 µM (MCF7 [15]) | Activity (MCF7 [16]) | Activity (MCF7 [17]) | Activity (MCF7 [18])
1 | COc1ccc(-c2nc3ccc(/C=C4\C(=O)Nc5ccc(Cl)cc54)cc3[nH]2)cc1 | 1.1% | 170 µM | 36.5% | 31.3% | Dose-dependent effect | 109 µM | Dose-dependent effect | 33.8% | 40.7% | 1840 nM | 57.7% | 1.6% | 35.4% | Active | Active | 80.7% | 27% | 26.3% | Active | 21.9%
2 | O=C1Nc2cc(Cl)ccc2/C1=C/c1ccc2nc(-c3cc(F)cc(F)c3)[nH]c2c1 | 1.2% | 147 µM | 34.9% | 23.4% | Dose-dependent effect | 97.9 µM | Dose-dependent effect | 30% | 42.3% | 1970 nM | 61.8% | 1.8% | 33% | Active | Active | 83.1% | 31% | 32.5% | Active | 20.3%
